Reference: patent publication US11105794B2, “In vitro nephrotoxicity screening assay” (Hoffmann-La Roche Inc., priority 2016, dated 2021)
l = locked nucleic acid (LNA); d = 2'-deoxy (DNA)

Key:
[1] = system: Wistar Han Crl:WI(Han) male rats; experiment: In vivo nephrotoxicity in rats; conditions: 40 mg/kg on days 1 and 8, assessed day 15, 40 mg/kg
Experimental: Purpose bred Wistar Han Crl:WI(Han) male rats obtained from Charles River Laboratories at 7 to 8 weeks of age were divided into groups of 4 (table 1, exp. A) or 8 (table 1, exp. B) based on body weight and acclimatized for at least 5 days before dosing. The animals were housed under standard environmental conditions ([…], relative humidity 50±20%, a light/dark cycle 12 h/12 h, pelleted food and water ad libitum), were offered enriched environment in an AAALAC accredited facility and were regularly and carefully monitored. All procedures were in accordance with the respective local regulations and according to the animal permissions granted by the Institutional Animal Care and Use Committee. Test compounds were formulated in isotonic sterile saline, sterile filtered (0.22 μm), and dosed at 40 mg/kg on days 1 and 8 (2.5 ml/kg) in the intrascapular region. Control group animals received saline as vehicle control. On day 15 animals were orally administered tap water (10 ml/kg), and urine was collected on ice for 6 hours in metabolic cages. […] On day 15 the rats were sacrificed by an intraperitoneal injection of pentobarbital and exsanguinated. Kidney cortex samples were collected and fixed by immersion in 10% neutral buffered formalin, embedded in paraffin, sectioned to 5 μm and stained with hematoxylin and eosin (H&). The H&E sections were then scanned at 20× magnification using an Aperio ScanScope AT™ (Leica Biosystems) scanner and pictures were then captured via ImageScope™ software from the scanned images. One or more of the following parameters were assessed kidney weight, serum creatinine, urine protein, KIM-1 protein in urine, KIM-1 mRNA, kidney degeneration/regeneration and relative tubulotoxicity grade.

[2] = system: PTEC-TERT1 cells; experiment: Morphological changes of PTEC-TERT1 cells upon oligonucleotide treatment; format: cell-based, human; conditions: 100 μM oligonucleotide, 7 days, bright field microscopy, vs saline
Experimental: PTEC-TERT1 cells were cultures as described in the “Materials and methods” section. To mimic the physiological exposure of renal tubules to circulating naked oligonucleotide (i.e. without assistance of delivery technology, herein termed gymnosis or gymnotic delivery), confluent monolayers of PTEC-TERT1 cells were exposed to an aqueous solution of 100 μM oligonucleotide. The medium was replaced every three days including 100 μM fresh oligonucleotide in the fresh medium.
After 7 days of treatment the morphological alterations in the treated cell cultures were investigated under bright field microscopy.

[3] = system: A549 cells; experiment: EGF assay, A549 cells transfected with oligonucleotide; format: cell-based, human; conditions: A549, 48 hours after transfection;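 also: values as percent of saline control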
Experimental: (§1) A549 cells (ATCC CCL-185) were cultivated according to the manufacturer's instructions in A549 medium [F-12K Nut Mix (Gibco, 21127-022), 1% penicillin/streptomycin (Gibco: 15140-122), 10% FBS (Gibco 16000-044)].
(§2) Prior to treatment with oligonucleotides the A549 cells were seeded in 96 well plates at 3′000 cells per well in A549 regular medium and grown until 60% confluence. […]
(§3) A549 were cultivated as described in the “Materials and methods” section. At after at 50-60% confluence the oligonucleotides were transfected into the cells using 0.5 μl Lipofectamin (Invitrogen, 11668-019) in 25 μl OptiMEM® (GIBCO 31985062) and 1 ng or 10 ng oligonucleotide in the same volume OptiMEM. The cells were incubated over night at 37° C. The medium was changed using A459 regular medium+10 ng/ml EGF. 48 hours after transfection the medium was collected for EGF measurements and the cells were harvested for ATP measurements.

[4] = system: A549 cells; experiment: Intracellular ATP assay, A549 cells transfected with oligonucleotide; format: cell-based, human; conditions: A549, 48 hours after transfection;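 also: ATP as percent of saline control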
Experimental: as §1, §2
Each sample was tested in triplicate.
as §3

[5] = system: PCSK9 mRNA; experiment: Target knock down (PCSK9 mRNA levels) in PTEC-TERT1 cells; format: cell-based, human; conditions: normalized to PPIB
Experimental: For assessment of the target knock down (PCSK9 mRNA levels) total mRNA was extracted from the cells adding 100 μl of 1× RNA lysis mixture (QuantiGene® Sample Processing Kit, QS0101) directly into the wells according to the manufacturer's instructions. RNA lysis mixtures were kept at −80° C. until analysis. For gene expression analysis, 20 μl of lysates were mixed with an mRNA-capture magnetic beads sets (Panomics QuantiGene® Plex Set catalog #12697), incubated overnight, processed for branched DNA amplification and analyzed according to the manufacturer's instructions (Panomics QuantiGene® Plex Assay kit, QP1015). The PPIB probe was used as housekeeping gene for normalization. Average Fluoresence Intensity (FI) and standard deviation of 3 biological replicates were calculated and normalized on vehicle control. The results are shown in table 11, and represent the average of three identical treatments.

[6] = system: PTEC-TERT1 cells; experiment: EGF assay, supernatant of PTEC-TERT1 cells; conditions: for Toxicity grade: from EGF, assay window saline vs toxic reference compound 4-1
Experimental: Prior to treatment with oligonucleotides the PTEC-TERT1 were seeded into collagen I-coated 96-well plates (Corning, 356407) at a density of 40 000 and 20 000 cells/well respectively in PTEC medium and grown until confluence.
(§4) Oligonucleotides were dissolved in PBS and added to the cell culture at the given concentration, such as 10, 30 or 100 μM. The total volume of each well was 100 μl. PBS served as vehicle control.
(§5) When extra cellular markers, like EGF and KIM-1, were analyzed following the oligonucleotide treatment the medium was collected and stored at −20° C. until further analysis. […] The collected medium was stored at −20° C.
For analysis of human EGF, cell supernatants were thawed on ice, diluted 1:2 and 1:10 in sample dilution buffer (BioRad catalog # M60-009RDPD) and analyzed by Luminex®-based ELISA using human EGF beads (Bio-Plex Pro™ Human Cancer Biomarker Panel 2 EGF Set#171BC603M), or followed by analysis using the Bio-Plex® 200 Systems (BioRad) according to the manufacturer's instructions. Data are reported as mean concentrations and standard deviations of triplicate wells.

[7] = system: Human primary proximal tubule epithelial cells (PTEC); experiment: EGF assay, supernatant of primary PTEC cells
Experimental: Prior to treatment with oligonucleotides the primary PTEC cells were seeded into collagen I-coated 96-well plates (Corning, 356407) at a density of 40 000 and 20 000 cells/well respectively in PTEC medium and grown until confluence.
as §4, §5
For analysis of human EGF, cell supernatants were thawed on ice, diluted 1:2 and 1:10 in sample dilution buffer (BioRad catalog # M60-009RDPD) and analyzed by Luminex®-based ELISA using human EGF beads (Bio-Plex Pro™ Human Cancer Biomarker Panel 2 EGF Set#171BC603M), or followed by analysis using the Bio-Plex® 200 Systems (BioRad) according to the manufacturer's instructions. Data are reported as mean concentrations and standard deviations of triplicate wells. An increase of EGF levels above 200% was considered as predictive for nephrotoxicity.

[8] = PTEC-TERT1, EGF 0 ng/ml in medium
[9] = PTEC-TERT1, EGF 10 ng/ml in medium
[10] = PTEC-TERT1, 6 days, 10 ng/ml EGF in medium, 25 μM
[11] = PTEC-TERT1, 6 days, 10 ng/ml EGF in medium, 100 μM
[12] = PTEC-TERT1, 6 days, No EGF in Medium, 25 μM
[13] = PTEC-TERT1, 6 days, No EGF in Medium, 100 μM
[14] = PTEC-TERT1, Day 3, 3 μM (Table 2)
[15] = PTEC-TERT1, Day 3, 10 μM (Table 2)
[16] = PTEC-TERT1, Day 3, 11 μM (Table 3)
[17] = PTEC-TERT1, Day 3, 30 μM (Table 2)
[18] = PTEC-TERT1, Day 3, 33 μM (Table 3)
[19] = PTEC-TERT1, Day 3, 100 μM (Table 2)
[20] = PTEC-TERT1, Day 3, 100 μM (Table 3)
[21] = PTEC-TERT1, Day 6, 3 μM (Table 2)
[22] = PTEC-TERT1, Day 6, 10 μM (Table 2)
[23] = PTEC-TERT1, Day 6, 30 μM (Table 2)
[24] = PTEC-TERT1, Day 6, 100 μM (Table 2)
[25] = PTEC-TERT1, Day 7, 11 μM (Table 3)
[26] = PTEC-TERT1, Day 7, 33 μM (Table 3)
[27] = PTEC-TERT1, Day 7, 100 μM (Table 3)
[28] = PTEC-TERT1, Day 10, 11 μM (Table 3)
[29] = PTEC-TERT1, Day 10, 33 μM (Table 3)
[30] = PTEC-TERT1, Day 10, 100 μM (Table 3)

## TGCtacaaaacCCA (antisense TGCTACAAAACCCA; sugars from the 5' end l3 d8 l3, backbone and methylation of C not given here) [Compound 3-1]
[1]
  In vivo nephrotoxicity / in vivo grade of toxicity: Medium
[2]
  morphological changes: formed irregular domes and vacuoles
[3]; 1 ng oligonucleotide
  EGF: 99 % saline
[3]; 10 ng oligonucleotide
  EGF: 199 % saline
[4]; 1 ng oligonucleotide
  ATP: 91 % saline
[4]; 10 ng oligonucleotide
  ATP: 44 % saline
[5]; [8]
  PCSK9 mRNA: 2.28 % of saline
[5]; [9]
  PCSK9 mRNA: 1.46 % of saline
[6]; [10]
  EGF: 245.0 pg/mL
[6]; [11]
  EGF: 341.8 pg/mL
[6]; [12]
  EGF: 6.3 pg/mL
[6]; [13]
  EGF: 12.2 pg/mL
[6]; [14]
  EGF: 70 % saline
[6]; [15]
  EGF: 75 % saline
[6]; [16]
  EGF: 151 % saline
[6]; [17]
  EGF: 70 % saline
[6]; [18]
  EGF: 213 % saline
[6]; [19]
  EGF: 128 % saline
[6]; [20]
  EGF: 207 % saline
[6]; [21]
  EGF: 124 % saline
[6]; [22]
  EGF: 137 % saline
[6]; [23]
  EGF: 231 % saline
[6]; [24]
  EGF: 2413 % saline
[6]; [25]
  EGF: 168 % saline
[6]; [26]
  EGF: 287 % saline
[6]; [27]
  EGF: 493 % saline
[6]; [28]
  EGF: 41 % saline
[6]; [29]
  EGF: 138 % saline
[6]; [30]
  EGF: 227 % saline
[7]; Day 3, 3 μM
  EGF: 114 % saline
[7]; Day 3, 10 μM
  EGF: 139 % saline
[7]; Day 3, 30 μM
  EGF: 134 % saline
[7]; Day 3, 100 μM
  EGF: 269 % saline
[7]; Day 6, 3 μM
  EGF: 152 % saline
[7]; Day 6, 10 μM
  EGF: 286 % saline
[7]; Day 6, 30 μM
  EGF: 653 % saline
[7]; Day 6, 100 μM
  EGF: 915 % saline

## GCtgtgtgagcttGG (antisense GCTGTGTGAGCTTGG; sugars from the 5' end l2 d11 l2, backbone and methylation of C not given here) [Compound 4-1]
[1]
  In vivo nephrotoxicity / in vivo grade of toxicity: high and High and Sever tox
[2]
  morphological changes: adopted a flattened and stable appearance
[3]; 1 ng oligonucleotide
  EGF: 132 % saline
[3]; 10 ng oligonucleotide
  EGF: 211 % saline
[4]; 1 ng oligonucleotide
  ATP: 93 % saline
[4]; 10 ng oligonucleotide
  ATP: 51 % saline
[5]; [8]
  PCSK9 mRNA: 6.84 % of saline
[5]; [9]
  PCSK9 mRNA: 1.47 % of saline
[6]; [10]
  EGF: 731.7 pg/mL
[6]; [11]
  EGF: 1957.8 pg/mL
[6]; PTEC-TERT1, 6 days, 10 μM oligonucleotide (Table 7)
  EGF: 2622 % saline
[6]; PTEC-TERT1, 6 days, 10 μM
  Toxicity grade: 100
[6]; PTEC-TERT1, 6 days, 30 μM oligonucleotide (Table 7)
  EGF: 7311 % saline
[6]; PTEC-TERT1, 6 days, 30 μM
  Toxicity grade: 100
[6]; [12]
  EGF: 5.4 pg/mL
[6]; [13]
  EGF: 5.3 pg/mL
[6]; [14]
  EGF: 71 % saline
[6]; [15]
  EGF: 116 % saline
[6]; [16]
  EGF: 225 % saline
[6]; [17]
  EGF: 302 % saline
[6]; [18]
  EGF: 368 % saline
[6]; [19]
  EGF: 1572 % saline
[6]; [20]
  EGF: 484 % saline
[6]; [21]
  EGF: 37 % saline
[6]; [22]
  EGF: 222 % saline
[6]; [23]
  EGF: 8398 % saline
[6]; [24]
  EGF: 8899 % saline
[6]; [25]
  EGF: 637 % saline
[6]; [26]
  EGF: 983 % saline
[6]; [27]
  EGF: 983 % saline
[6]; [28]
  EGF: 1177 % saline
[6]; [29]
  EGF: 1865 % saline
[6]; [30]
  EGF: 1792 % saline
[7]; Day 3, 3 μM
  EGF: 198 % saline
[7]; Day 3, 10 μM
  EGF: 323 % saline
[7]; Day 3, 30 μM
  EGF: 373 % saline
[7]; Day 3, 100 μM
  EGF: 631 % saline
[7]; Day 6, 3 μM
  EGF: 525 % saline
[7]; Day 6, 10 μM
  EGF: 1171 % saline
[7]; Day 6, 30 μM
  EGF: 1588 % saline
[7]; Day 6, 100 μM
  EGF: 1403 % saline
